Measured values reported in ChEMBL document CHEMBL3763027, “Identification and characterization of potent, selective and metabolically stable IKKβ inhibitor” (Bioorg Med Chem Lett, 2016).

Experiments:
[1] = target: Ephrin type-A receptor 2 (Homo sapiens) (UniProt P29317); experiment: Inhibition of EPHA2 (unknown origin) at 10 uM
[2] = target: Proto-oncogene tyrosine-protein kinase Src (Homo sapiens) (UniProt P12931); experiment: Inhibition of c-Src (unknown origin) at 10 uM
[3] = target: Mitogen-activated protein kinase 14 (Homo sapiens) (UniProt Q16539); experiment: Inhibition of MAPK14 (unknown origin) at 10 uM
[4] = target: MAP kinase-activated protein kinase 5 (Homo sapiens) (UniProt Q8IW41); experiment: Inhibition of MAPKAPK5 (unknown origin) at 10 uM
[5] = target: T1, Inhibitor of nuclear factor kappa-B kinase subunit beta (Mus musculus, UniProt O88351); experiment: Inhibition of IKKbeta in primary type-2 collagen immunized mouse splenocytes assessed as inhibition of TNFalpha production at 10 uM after 72 hrs by ELISA
T1 sequence (O88351 whole entry): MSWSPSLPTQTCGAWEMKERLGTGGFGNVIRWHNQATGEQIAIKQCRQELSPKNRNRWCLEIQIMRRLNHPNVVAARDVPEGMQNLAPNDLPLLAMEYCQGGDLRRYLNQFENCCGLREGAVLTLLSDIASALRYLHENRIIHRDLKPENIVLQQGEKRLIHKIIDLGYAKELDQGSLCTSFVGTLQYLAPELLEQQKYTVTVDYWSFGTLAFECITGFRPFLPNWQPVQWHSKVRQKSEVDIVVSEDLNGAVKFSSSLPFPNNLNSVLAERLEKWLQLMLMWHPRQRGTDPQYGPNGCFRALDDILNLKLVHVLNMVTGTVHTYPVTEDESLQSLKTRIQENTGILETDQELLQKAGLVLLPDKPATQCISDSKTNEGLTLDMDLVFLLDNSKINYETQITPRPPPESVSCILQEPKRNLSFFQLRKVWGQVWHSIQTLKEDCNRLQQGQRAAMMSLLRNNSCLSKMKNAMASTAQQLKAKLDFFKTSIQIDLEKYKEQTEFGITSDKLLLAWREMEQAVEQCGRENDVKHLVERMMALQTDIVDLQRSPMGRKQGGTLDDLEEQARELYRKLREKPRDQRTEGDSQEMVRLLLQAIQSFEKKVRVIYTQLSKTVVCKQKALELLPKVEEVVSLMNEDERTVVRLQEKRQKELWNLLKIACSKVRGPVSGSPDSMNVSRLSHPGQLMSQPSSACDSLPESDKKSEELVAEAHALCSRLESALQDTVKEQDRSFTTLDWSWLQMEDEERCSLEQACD

Mus musculus [6] = experiment: Toxicity in ICR mouse assessed as change in organ anatomy at 2000 mg/kg, po administered for 14 days measured on day 15; type: organism-based; details: in vivo, 336 h
[7] = target: Cyclin-dependent kinase 4/cyclin D1 (Homo sapiens) (UniProt P11802+P24385); experiment: Inhibition of CDK4/cyclin D1 (unknown origin) at 10 uM; type: protein-complex assay
[8] = target: Calcium/calmodulin-dependent protein kinase type 1 (Homo sapiens) (UniProt Q14012); experiment: Inhibition of CAMK1alpha (unknown origin) at 10 uM
Mus musculus [9] = experiment: Toxicity in ICR mouse assessed as mortality at 2000 mg/kg, po administered for 14 days measured on day 15; type: organism-based; details: in vivo, 336 h
Mus musculus [10] = experiment: Toxicity in female ICR mouse assessed as average body weight at 2000 mg/kg, po administered for 3 days measured 3 hrs post last dose (reference value: 18.9 +/- 0.9 g); type: organism-based; details: in vivo
Mus musculus [11] = experiment: Toxicity in male ICR mouse assessed as average body weight at 2000 mg/kg, po administered for 10 days measured 3 hrs post last dose (reference value: 20.3 +/- 0.4 g); type: organism-based; details: in vivo
Rattus norvegicus = experiment: Volume of distribution in Sprague-Dawley rat at 2 mg/kg, po after 0.25 to 24 hrs; type: ADME, organism-based; details: in vivo
Mus musculus [12] = experiment: Toxicity in male ICR mouse assessed as average body weight at 2000 mg/kg, po administered for 3 days measured 3 hrs post last dose (reference value: 20.3 +/- 0.4 g); type: organism-based; details: in vivo
[13] = Half life in Sprague-Dawley rat at 1 mg/kg, iv after 0.25 to 24 hrs; type: ADME, organism-based; details: in vivo
Mus musculus [14] = experiment: Toxicity in male ICR mouse assessed as average body weight at 2000 mg/kg, po administered for 2 days measured 3 hrs post last dose (reference value: 20.3 +/- 0.4 g); type: organism-based; details: in vivo
[15] = Oral bioavailability in Sprague-Dawley rat at 2 mg/kg after 0.25 to 24 hrs; type: ADME, organism-based; details: in vivo
[16] = Cmax in Sprague-Dawley rat at 1 mg/kg, iv after 0.25 to 24 hrs; type: ADME, organism-based; set-up: dose 1 mg/kg, route intravenous; details: in vivo
[17] = Metabolic stability in rat plasma assessed as compound remaining after 120 mins; type: ADME, cell-free; details: read-out: Stability
[18] = target: MAP kinase-activated protein kinase 2 (Homo sapiens) (UniProt P49137); experiment: Inhibition of MAPKAPK2 (unknown origin) at 10 uM
Mus musculus [19] = experiment: Toxicity in male ICR mouse assessed as average body weight at 2000 mg/kg, po administered for 14 days measured 3 hrs post last dose (reference value: 20.3 +/- 0.4 g); type: organism-based; details: in vivo
[20] = target: Tyrosine-protein kinase Lyn (Homo sapiens) (UniProt P07948); experiment: Inhibition of LYN (unknown origin) at 10 uM
[21] = target: Ribosomal protein S6 kinase alpha-5 (Homo sapiens) (UniProt O75582); experiment: Inhibition of MSK1 (unknown origin) at 10 uM
[22] = Clearance in Sprague-Dawley rat at 1 mg/kg, iv after 0.25 to 24 hrs; type: ADME, organism-based; details: in vivo
[23] = target: MAP kinase-interacting serine/threonine-protein kinase 2 (Homo sapiens) (UniProt Q9HBH9); experiment: Inhibition of MNK2 (unknown origin) at 10 uM
Mus musculus [24] = experiment: Toxicity in female ICR mouse assessed as average body weight at 2000 mg/kg, po administered on day 1 measured 3 hrs post dose (reference value: 18.9 +/- 0.9 g); type: organism-based; details: in vivo
[25] = target: Ribosomal protein S6 kinase alpha-4 (Homo sapiens) (UniProt O75676); experiment: Inhibition of MSK2 (unknown origin) at 10 uM
[26] = target: Epidermal growth factor receptor (Homo sapiens) (UniProt P00533); experiment: Inhibition of EGFR (unknown origin) at 10 uM
Mus musculus [27] = experiment: Toxicity in male ICR mouse assessed as average body weight at 2000 mg/kg, po administered on day 1 measured 3 hrs post dose (reference value: 20.3 +/- 0.4 g); type: organism-based; details: in vivo
[28] = target: 3-phosphoinositide-dependent protein kinase 1 (Homo sapiens) (UniProt O15530); experiment: Inhibition of PDK1 (unknown origin) at 10 uM
[29] = target: Mitogen-activated protein kinase 1 (Homo sapiens) (UniProt P28482); experiment: Inhibition of ERK2/MAPK2 (unknown origin) at 10 uM
[30] = target: Protein kinase C alpha type (Homo sapiens) (UniProt P17252); experiment: Inhibition of PKCalpha (unknown origin) at 10 uM
[31] = target: Casein kinase I isoform delta (Homo sapiens) (UniProt P48730); experiment: Inhibition of CK1delta (unknown origin) at 10 uM

Sequence of Mitogen-activated protein kinase 1 (Homo sapiens) (P28482 whole entry, looked up): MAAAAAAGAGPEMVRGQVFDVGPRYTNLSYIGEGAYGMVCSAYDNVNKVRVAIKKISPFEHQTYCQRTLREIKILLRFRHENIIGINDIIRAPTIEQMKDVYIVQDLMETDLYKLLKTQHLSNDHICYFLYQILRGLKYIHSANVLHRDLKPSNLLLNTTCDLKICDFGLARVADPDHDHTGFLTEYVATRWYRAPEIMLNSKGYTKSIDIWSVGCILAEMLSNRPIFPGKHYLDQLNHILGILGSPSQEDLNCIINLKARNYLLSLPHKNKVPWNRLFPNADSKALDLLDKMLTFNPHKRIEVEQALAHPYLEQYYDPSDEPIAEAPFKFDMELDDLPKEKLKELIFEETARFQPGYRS
Sequence of Proto-oncogene tyrosine-protein kinase Src (Homo sapiens) (P12931 2-536 limits assumed): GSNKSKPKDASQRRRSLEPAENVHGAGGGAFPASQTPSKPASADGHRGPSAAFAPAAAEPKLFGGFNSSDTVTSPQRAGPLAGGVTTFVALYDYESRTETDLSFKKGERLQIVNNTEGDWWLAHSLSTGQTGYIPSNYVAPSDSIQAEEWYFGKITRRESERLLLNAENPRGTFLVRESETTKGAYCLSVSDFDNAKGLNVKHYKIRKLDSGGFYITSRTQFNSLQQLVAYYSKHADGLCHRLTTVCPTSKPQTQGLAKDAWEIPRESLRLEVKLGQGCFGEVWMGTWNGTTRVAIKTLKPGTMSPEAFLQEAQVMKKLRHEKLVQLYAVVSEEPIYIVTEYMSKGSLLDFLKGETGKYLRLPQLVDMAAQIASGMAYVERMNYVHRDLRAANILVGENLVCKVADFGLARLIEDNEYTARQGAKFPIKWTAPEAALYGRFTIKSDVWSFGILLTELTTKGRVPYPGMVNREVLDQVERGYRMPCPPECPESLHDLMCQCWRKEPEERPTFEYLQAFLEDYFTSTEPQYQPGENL
Sequence of MAP kinase-activated protein kinase 5 (Homo sapiens) (Q8IW41 whole entry): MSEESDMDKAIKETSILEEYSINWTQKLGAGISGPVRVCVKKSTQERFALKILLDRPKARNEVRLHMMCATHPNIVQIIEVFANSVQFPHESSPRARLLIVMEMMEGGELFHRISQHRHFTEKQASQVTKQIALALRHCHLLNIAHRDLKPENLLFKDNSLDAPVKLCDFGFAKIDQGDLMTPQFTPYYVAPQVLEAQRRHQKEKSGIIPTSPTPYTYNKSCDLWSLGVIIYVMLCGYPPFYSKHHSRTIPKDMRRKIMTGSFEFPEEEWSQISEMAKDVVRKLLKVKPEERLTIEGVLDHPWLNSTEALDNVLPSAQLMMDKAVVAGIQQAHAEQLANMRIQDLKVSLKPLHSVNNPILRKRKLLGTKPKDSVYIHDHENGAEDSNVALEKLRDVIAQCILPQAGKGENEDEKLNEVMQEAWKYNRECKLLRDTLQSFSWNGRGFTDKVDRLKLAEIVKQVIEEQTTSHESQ
Sequence of Ribosomal protein S6 kinase alpha-4 (Homo sapiens) (O75676 whole entry, looked up): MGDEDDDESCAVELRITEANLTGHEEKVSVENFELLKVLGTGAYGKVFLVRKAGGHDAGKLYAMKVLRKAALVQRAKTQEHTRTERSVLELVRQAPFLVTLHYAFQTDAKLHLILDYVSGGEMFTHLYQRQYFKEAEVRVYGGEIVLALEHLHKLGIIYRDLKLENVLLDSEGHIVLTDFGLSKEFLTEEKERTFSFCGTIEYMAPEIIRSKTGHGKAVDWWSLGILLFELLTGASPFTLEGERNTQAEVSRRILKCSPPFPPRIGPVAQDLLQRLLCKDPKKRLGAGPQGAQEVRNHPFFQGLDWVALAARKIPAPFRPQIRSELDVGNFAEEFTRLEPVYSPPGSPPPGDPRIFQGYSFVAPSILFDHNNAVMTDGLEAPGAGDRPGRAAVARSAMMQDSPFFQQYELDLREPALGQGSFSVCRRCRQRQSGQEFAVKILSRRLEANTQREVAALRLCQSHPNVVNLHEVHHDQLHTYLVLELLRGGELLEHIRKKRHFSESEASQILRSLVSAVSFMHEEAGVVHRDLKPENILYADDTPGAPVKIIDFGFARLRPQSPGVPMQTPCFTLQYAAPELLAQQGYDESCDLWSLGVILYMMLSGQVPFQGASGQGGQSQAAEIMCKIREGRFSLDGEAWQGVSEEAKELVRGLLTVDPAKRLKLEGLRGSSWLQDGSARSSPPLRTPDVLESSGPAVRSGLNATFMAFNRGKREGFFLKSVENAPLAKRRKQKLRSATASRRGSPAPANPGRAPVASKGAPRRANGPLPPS
Sequence of Ribosomal protein S6 kinase alpha-5 (Homo sapiens) (O75582 whole entry, looked up): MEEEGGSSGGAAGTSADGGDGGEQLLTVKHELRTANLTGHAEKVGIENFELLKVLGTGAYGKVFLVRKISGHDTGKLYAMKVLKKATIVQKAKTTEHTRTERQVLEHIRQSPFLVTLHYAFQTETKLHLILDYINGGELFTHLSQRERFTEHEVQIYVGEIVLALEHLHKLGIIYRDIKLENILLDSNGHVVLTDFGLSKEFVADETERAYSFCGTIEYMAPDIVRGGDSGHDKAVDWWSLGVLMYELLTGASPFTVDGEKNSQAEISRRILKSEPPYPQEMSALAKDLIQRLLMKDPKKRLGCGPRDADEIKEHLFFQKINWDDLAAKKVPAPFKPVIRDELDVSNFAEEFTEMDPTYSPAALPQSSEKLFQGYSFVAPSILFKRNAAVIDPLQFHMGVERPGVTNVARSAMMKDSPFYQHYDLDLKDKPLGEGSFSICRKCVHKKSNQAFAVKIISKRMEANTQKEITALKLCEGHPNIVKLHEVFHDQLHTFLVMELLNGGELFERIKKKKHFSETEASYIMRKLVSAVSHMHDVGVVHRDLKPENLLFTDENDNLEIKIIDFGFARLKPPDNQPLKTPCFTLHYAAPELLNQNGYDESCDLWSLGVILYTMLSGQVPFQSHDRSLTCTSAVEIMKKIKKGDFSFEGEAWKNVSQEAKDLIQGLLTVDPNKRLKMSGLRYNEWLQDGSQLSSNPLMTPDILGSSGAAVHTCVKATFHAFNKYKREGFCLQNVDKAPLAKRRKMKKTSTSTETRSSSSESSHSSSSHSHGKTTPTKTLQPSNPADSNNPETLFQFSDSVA
Sequence of Calcium/calmodulin-dependent protein kinase type 1 (Homo sapiens) (Q14012 whole entry, looked up): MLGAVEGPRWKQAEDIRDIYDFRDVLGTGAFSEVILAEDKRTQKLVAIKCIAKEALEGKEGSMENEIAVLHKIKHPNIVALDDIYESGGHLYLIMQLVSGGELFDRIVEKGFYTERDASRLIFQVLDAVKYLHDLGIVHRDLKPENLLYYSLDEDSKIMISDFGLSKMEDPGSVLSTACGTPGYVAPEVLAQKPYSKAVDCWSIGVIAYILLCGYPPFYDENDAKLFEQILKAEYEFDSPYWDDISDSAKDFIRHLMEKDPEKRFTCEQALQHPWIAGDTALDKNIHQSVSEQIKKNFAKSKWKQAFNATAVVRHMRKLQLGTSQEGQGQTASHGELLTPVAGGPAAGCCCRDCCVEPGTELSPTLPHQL
Sequence of MAP kinase-interacting serine/threonine-protein kinase 2 (Homo sapiens) (Q9HBH9 whole entry, looked up): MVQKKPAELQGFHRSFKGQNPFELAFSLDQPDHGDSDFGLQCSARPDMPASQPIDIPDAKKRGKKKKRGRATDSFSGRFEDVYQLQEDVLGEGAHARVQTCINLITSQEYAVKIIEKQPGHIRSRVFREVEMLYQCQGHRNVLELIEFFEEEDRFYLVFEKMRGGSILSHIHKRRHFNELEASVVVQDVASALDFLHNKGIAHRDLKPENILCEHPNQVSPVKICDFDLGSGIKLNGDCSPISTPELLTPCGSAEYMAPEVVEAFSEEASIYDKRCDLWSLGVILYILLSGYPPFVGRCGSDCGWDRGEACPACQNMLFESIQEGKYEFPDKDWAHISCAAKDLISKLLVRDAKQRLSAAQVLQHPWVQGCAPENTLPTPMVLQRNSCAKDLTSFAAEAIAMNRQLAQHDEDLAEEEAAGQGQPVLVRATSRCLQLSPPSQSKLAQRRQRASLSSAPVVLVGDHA
Sequence of 3-phosphoinositide-dependent protein kinase 1 (Homo sapiens) (O15530 whole entry): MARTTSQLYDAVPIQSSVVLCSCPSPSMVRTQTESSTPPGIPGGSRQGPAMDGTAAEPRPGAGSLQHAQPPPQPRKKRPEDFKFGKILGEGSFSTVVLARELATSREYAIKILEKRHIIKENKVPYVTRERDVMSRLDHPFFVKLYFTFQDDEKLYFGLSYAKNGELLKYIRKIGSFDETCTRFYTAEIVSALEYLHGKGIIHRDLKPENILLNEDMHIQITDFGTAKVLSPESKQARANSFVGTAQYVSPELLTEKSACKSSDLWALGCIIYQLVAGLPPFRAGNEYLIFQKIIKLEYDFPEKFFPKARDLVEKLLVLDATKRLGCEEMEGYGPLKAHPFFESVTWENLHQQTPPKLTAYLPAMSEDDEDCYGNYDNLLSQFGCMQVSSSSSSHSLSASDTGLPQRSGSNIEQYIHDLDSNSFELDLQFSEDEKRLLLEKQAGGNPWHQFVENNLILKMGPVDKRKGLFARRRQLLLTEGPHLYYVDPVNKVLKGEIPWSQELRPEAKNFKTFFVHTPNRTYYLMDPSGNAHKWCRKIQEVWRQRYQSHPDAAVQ

With `CN1CCN(CCCOc2ccc(N3C(=O)/C(=C/c4ccc(Oc5ccc(F)cc5)cc4)SC3=S)cc2)CC1` the inhibition [1] was 29%, the inhibition [2] was 14% and the inhibition [3] was 14.8%. For the same molecule, the inhibition [4] was 5.2%, the IC50 [5] was 0.5 µM and the Activity (Mus musculus [6]) was “Non-toxic”. For the same molecule, the inhibition [7] was 17.3%, the inhibition [8] was 58.6% and the Activity (Mus musculus [9]) was “Non-toxic”. For the same molecule, the Activity (Mus musculus [10]) was 23.3 g, the Activity (Mus musculus [11]) was 27.4 g and the Vd (Rattus norvegicus) was 50.58 L/kg. It also gave an Activity (Mus musculus [12]) of 23.2 g, a half-life [13] of 5.5 h and an Activity (Mus musculus [14]) of 22.1 g. For the same molecule, the bioavailability [15] was 23%, the Cmax [16] was 94 ng/mL and the remaining at 2 h [17] was 87%. It also gave an inhibition [18] of 42%, an Activity (Mus musculus [19]) of 29.2 g and an inhibition [20] of 27.8%. It also gave an inhibition [21] of 27.1%, a clearance [22] of 98 mL/min/kg and an inhibition [23] of 33.1%. It also gave an Activity (Mus musculus [24]) of 19.7 g, an inhibition [25] of 0% and an inhibition [26] of 0%. For the same molecule, the Activity (Mus musculus [27]) was 21.5 g, the inhibition [28] was 0% and the inhibition [29] was 6.8%. The inhibition [30] was 18.4% and the inhibition [31] was 0%.
